From PMC2791876, “Comparison of effects of green tea catechins on apicomplexan hexose transporters and mammalian orthologues” (Molecular and Biochemical Parasitology, 2009)

Tests used:
[1] = biological target: T1, Plasmodium falciparum hexose transporter (PfHT) (Plasmodium falciparum, UniProt O97467); experiment: cell-based; conditions: D-glucose (38 μM) transport, X. laevis oocytes, room temperature; mean ± SEM (n ≥ 3)
T1 construct: expressed in transfected cells; host or cells: Xenopus laevis oocytes
T1 sequence (O97467 1-504): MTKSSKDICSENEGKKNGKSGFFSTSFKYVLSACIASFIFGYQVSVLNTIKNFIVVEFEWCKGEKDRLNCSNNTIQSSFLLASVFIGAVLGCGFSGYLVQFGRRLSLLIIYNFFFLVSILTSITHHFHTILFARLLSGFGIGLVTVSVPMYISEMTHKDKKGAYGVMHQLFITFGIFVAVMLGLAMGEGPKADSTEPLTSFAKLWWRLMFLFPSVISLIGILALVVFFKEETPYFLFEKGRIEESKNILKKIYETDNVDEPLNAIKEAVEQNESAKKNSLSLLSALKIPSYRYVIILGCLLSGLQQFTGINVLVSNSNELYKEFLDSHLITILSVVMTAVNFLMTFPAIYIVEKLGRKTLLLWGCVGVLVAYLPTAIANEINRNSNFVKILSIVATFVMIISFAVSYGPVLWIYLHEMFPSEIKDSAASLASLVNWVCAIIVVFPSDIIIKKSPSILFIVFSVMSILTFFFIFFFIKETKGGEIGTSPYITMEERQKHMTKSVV
Description: (§1) The effect of the green tea catechins, EC, ECG, EGC and EGCG, on D-glucose transport via PfHT, GLUT1 and the Babesia bovis hexose transporter 1 (BboHT1; [12]) and D-fructose transport via GLUT5 was assayed in Xenopus laevis oocytes expressing each of the hexose transporters, using methods described previously.

[2] = biological target: T2, mammalian facilitative glucose transporter 1 (GLUT1) (Homo sapiens, UniProt P11166); experiment: D-glucose transport via GLUT1 expressed in Xenopus laevis oocytes; type: cell-based; conditions: D-glucose (38 μM) transport, X. laevis oocytes, room temperature; mean ± SEM (n ≥ 3)
T2 construct: expressed in transfected cells; host or cells: Xenopus laevis oocytes
T2 sequence (P11166 1-492): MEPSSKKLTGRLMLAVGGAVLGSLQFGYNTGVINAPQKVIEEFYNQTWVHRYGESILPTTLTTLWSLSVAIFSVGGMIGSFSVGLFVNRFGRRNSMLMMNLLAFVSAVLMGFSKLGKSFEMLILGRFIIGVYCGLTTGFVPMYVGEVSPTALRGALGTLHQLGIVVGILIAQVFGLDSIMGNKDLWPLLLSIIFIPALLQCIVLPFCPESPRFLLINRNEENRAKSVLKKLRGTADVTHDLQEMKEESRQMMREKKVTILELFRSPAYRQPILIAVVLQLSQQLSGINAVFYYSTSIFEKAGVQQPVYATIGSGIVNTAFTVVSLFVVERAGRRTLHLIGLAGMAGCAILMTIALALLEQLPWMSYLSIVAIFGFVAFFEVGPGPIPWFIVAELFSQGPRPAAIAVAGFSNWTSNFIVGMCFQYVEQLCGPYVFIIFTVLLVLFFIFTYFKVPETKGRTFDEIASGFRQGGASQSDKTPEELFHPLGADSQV
Description: as §1

GLUT5 = biological target: T3, GLUT5 (Homo sapiens, UniProt P22732); experiment: D-fructose transport via GLUT5 expressed in Xenopus laevis oocytes; type: cell-based, mammalian; conditions: D-fructose (100 μM) transport, X. laevis oocytes, room temperature; mean ± SEM (n ≥ 3)
T3 construct: expressed in transfected cells; host or cells: Xenopus laevis oocytes
T3 sequence (P22732 1-501): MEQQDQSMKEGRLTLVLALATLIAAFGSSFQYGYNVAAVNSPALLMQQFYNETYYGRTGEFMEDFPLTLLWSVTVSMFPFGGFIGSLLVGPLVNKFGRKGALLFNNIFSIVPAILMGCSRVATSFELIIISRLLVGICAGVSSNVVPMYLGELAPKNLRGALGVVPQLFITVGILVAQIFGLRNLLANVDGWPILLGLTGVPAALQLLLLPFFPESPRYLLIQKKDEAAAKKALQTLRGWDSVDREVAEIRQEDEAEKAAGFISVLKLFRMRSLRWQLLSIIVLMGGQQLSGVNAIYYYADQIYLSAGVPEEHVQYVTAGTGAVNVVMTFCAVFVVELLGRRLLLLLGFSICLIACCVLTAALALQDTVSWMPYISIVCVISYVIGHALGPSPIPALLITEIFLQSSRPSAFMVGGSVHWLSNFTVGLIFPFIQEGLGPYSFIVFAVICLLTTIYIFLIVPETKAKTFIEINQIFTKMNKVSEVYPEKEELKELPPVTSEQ
Description: as §1

[3] = biological target: T4, Babesia bovis hexose transporter 1 (BboHT1) (Babesia bovis, UniProt B0LKY8); experiment: D-glucose transport via BboHT1 expressed in Xenopus laevis oocytes; type: cell-based; conditions: X. laevis oocytes, room temperature, mean ± SEM (n ≥ 3)
T4 sequence (B0LKY8 entry or part of it): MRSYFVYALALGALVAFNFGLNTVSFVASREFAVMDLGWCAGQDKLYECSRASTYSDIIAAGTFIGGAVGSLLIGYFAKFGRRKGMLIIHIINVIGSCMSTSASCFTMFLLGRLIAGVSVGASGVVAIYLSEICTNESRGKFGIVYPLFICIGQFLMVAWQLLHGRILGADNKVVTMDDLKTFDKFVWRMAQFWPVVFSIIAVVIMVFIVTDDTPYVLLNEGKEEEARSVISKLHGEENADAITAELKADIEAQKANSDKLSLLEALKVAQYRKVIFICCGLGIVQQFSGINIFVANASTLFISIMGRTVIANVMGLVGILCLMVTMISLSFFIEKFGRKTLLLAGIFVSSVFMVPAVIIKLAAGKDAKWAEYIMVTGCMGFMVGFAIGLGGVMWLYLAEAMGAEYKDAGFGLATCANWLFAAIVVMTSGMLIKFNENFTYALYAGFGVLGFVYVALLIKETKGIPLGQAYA
Description: as §1, with “previously. The compounds were tested initially at a concentration of 0.5 mM (data not shown).” for “previously.”

P. falciparum (3D7) = experiment: P. falciparum growth in vitro; type: cell-based, Plasmodium falciparum; conditions: P. falciparum 3D7, 12 mM D-glucose, 48 h; mean ± SEM (n ≥ 3); read-out: IC50 parasite growth
Description: (§2) Furthermore, given that catechins are competitive inhibitors of D-glucose transport mediated by GLUT1 [8], the relationship between external D-glucose concentration and IC50 values was examined. […] The effect of catechins was also tested on Babesia divergens (strain Rouen 1987) growth as described.

PfHT = biological target: T5, PfHT (Plasmodium falciparum, UniProt O97467); experiment: 3-O-methyl-D-glucose (3OMG) transport via PfHT in X. laevis oocytes; type: cell-based; conditions: 3OMG (17 μM), mean ± SEM, n = 3
T5 construct: expressed in transfected cells; host or cells: Xenopus laevis oocytes

GLUT1 = biological target: GLUT1; parameters: method as in PMID 12970085; conditions: human erythrocytes, zero-trans D-glucose efflux; read-out: Ki for D-glucose transport via GLUT1, published previously; cited from earlier work
[4] = biological target: T1, Plasmodium falciparum hexose transporter (PfHT); conditions: cited from earlier work; for Km: substrate Km, read-out: Km for transport via PfHT
[5] = system: Babesia divergens (strain Rouen 1987); experiment: Babesia divergens growth inhibition; type: cell-based; conditions: B. divergens, mean ± SEM; for inhibition of parasite growth: 200 μM, n = 3
Description: as §2

L323N BboHT1 = experiment: D-glucose uptake by mutant L323N BboHT1 in X. laevis oocytes; type: cell-based, Babesia bovis; conditions: 0.5 mM catechin; L323N vs wild-type; P < 0.001
[6] = biological target: T4, Babesia bovis hexose transporter 1 (BboHT1); parameters: method as in PMID 18638508; conditions: cited from earlier work
B. bovis parasites = system: B. bovis parasites; parameters: method as in PMID 18638508; conditions: cited from earlier work

## O=C(O[C@@H]1Cc2c(O)cc(O)cc2O[C@@H]1c1ccc(O)c(O)c1)c1cc(O)c(O)c(O)c1 [ECG, (−)-epicatechin-gallate]
[1]
  Ki: 45 ± 10 µM
[2]
  Ki: 68 ± 18 µM
GLUT5
  Ki: 117 ± 54 µM
[3]
  Ki: > 500 µM
P. falciparum (3D7)
  IC50: 32 ± 1 µM
PfHT
  Ki: 18 ± 3 µM
GLUT1
  Ki: 0.14 µM

## OC[C@H]1OC(O)[C@H](O)[C@@H](O)[C@@H]1O (stereo partly drawn) [D-glucose]
[4]
  Km: 1000 µM

## (−)-epigallocatechin-gallate [EGCG]
[1]
  Ki: 90 ± 24 µM
[2]
  Ki: 105 ± 18 µM
GLUT5
  Ki: 113 ± 48 µM
[3]
  Ki: > 500 µM
P. falciparum (3D7)
  IC50: 17 ± 3 µM
[5]
  inhibition of parasite growth: 71 ± 2%
GLUT1
  Ki: 0.97 µM

## Oc1cc(O)c2c(c1)O[C@H](c1cc(O)c(O)c(O)c1)[C@H](O)C2 [EGC, (−)-epigallocatechin]
[1]
  Ki: > 500 µM
[2]
  Ki: > 500 µM
GLUT5
  Ki: > 500 µM
[3]
  Ki: 168 ± 83 µM
[5]
  inhibition of parasite growth: 30 ± 10%

## Oc1cc(O)c2c(c1)O[C@H](c1ccc(O)c(O)c1)[C@H](O)C2 [EC, (−)-epicatechin]
[1]
  Ki: > 500 µM
[2]
  Ki: ~500 µM
GLUT5
  Ki: > 500 µM
[3]
  Ki: 108 ± 52 µM
[5]; Babesia divergens, n = 3, read-out: inhibition of parasite growth
  inhibition at 200 µM: 66 ± 14%
L323N BboHT1
  effect on D-glucose uptake by mutant versus wild-type BboHT1: affected significantly less

## CO[C@@H]([C@H](O)[C@H](O)CO)[C@@H](O)C=O [3OMG, 3-O-methyl-D-glucose]
[4]
  Km: 1300 µM

## C=CCCCCCCCCCO[C@H]1[C@H](O)[C@@H](CO)OC(O)[C@@H]1O (stereo partly drawn) [compound 3361]
[4]
  inhibition of D-glucose transport via PfHT (mode): specific and competitive inhibitor
[6]
  inhibition of BboHT1: good inhibitor
B. bovis parasites
  killing of B. bovis parasites in culture: did not kill
